Test system: neutrophils
Experiment: Neutrophil apoptosis, agarose gel DNA laddering
Type: cell-based, human
Excerpt: The inflammation associated with many forms of arthritis is thought to arise from the presence of large numbers of immune cells, such as neutrophils, in the synovial joints of humans. The extended inflammation associated with crystal induced arthritis arises from the interaction of neutrophils with crystals in the synovial joint. One reason the extended duration of the inflammation in this disease may be due to the inhibition of neutrophil apoptosis by crystals. This inhibition may result in the neutrophils remaining in the joint for extended periods. Compounds that overcome this crystal induced suppression of neutrophil apoptosis therefore allow the more rapid clearance of these cells from the joint with the appropriate abatement of inflammation. The process of apoptosis involves the endonuclease driven cleavage of DNA into fragments which may be visualized as a ladder of bands in an agarose gel electrophoresis experiment. Other assays that may be used include caspase 3 quantitation or measurements of cytoplasmic DNA concentration. […] Agents that inhibit caspase activation levels or reduce cytoplasmic DNA are pro-survival (potentially inflammatory) and agents that promote are pro-apoptotic and anti-inflammatory. The use of these methods and their role in neutrophil affected inflammation is described in detail in Tudan et al. J Rheumatol. 27 p 2463-72. 2000. […]

Which “apoptosis in neutrophils first incubated with CPPD crystals” value (CPPD crystals 1 hour, then drug 0.1 uM 4 hours) does the source give for CC[C@@]1(O)C(=O)OCc2c1cc1n(c2=O)Cc2cc3ccccc3nc2-1 [camptothecin] here?
The value was “extensive apoptosis”.

And the “DNA laddering (apoptosis) in neutrophils” value (drug alone, 0.1 uM, 4 hours)?
Its value is “extensive DNA laddering”.
